# From US20210322375A1, “COMBINATION DRUG FORMULATIONS FOR TREATING PATIENTS WITH CARDIOVASCULAR DISEASE AND ASSOCIATED CONDITIONS” (Esperion Therapeutics, Inc., priority 2018, published 2021)
# “Also recorded” adds a separate entry of the source. Marks after values point to notes of the source that are not given here.
# Columns and labels:
# [1] = system: hypercholesterolemic patients; assay: Phase 2b randomized double-blind trial: percent change from baseline to week 12 in lipids and CRP; type: in vivo, human; settings: for LDL-C reduction: baseline to week 12; for Apolipoprotein A-I, percent change from baseline to week 12 / Apolipoprotein B, percent change from baseline to week 12 / HDL particle number, percent change from baseline to week 12 / HDL-C, percent change from baseline to week 12 / LDL particle number, percent change from baseline to week 12 / LDL-C, percent change from baseline to week 12 / Non-HDL-C, percent change from baseline to week 12 / Total cholesterol, percent change from baseline to week 12: LS mean ± SE; for CRP, percent change from baseline to week 12 / Triglycerides, percent change from baseline to week 12 / VLDL particle number, percent change from baseline to week 12: median (interquartile range)
# Procedure: Brief Description of Clinical Study and Results.
# Study Objectives. The primary objective was to assess the LDL-C-lowering effect of ETC-1002 monotherapy (120 mg or 180 mg daily) versus EZE monotherapy in hypercholesterolemic patients with or without statin intolerance. Secondary objectives were to characterize the dose response of ETC-1002, evaluate the impact of treatment on other lipid and cardiometabolic biomarkers, compare the LDL-C-lowering effect of ETC-1002 plus EZE combination therapy with EZE monotherapy, and characterize the safety and tolerability of the treatment regimens, including muscle-related adverse events (AEs).
# Overall Study Design and Plan. […] 16, 2013 to Aug.
# LDL-C was calculated using the Friedewald equation.
# Efficacy Endpoints. The primary endpoint was the percent change from baseline to week 12 in calculated LDL-C in patients treated with ETC-1002 monotherapy versus those treated with EZE alone. Secondary endpoints included the dose-response relationship between ETC-1002 and the percent change in LDL-C from baseline to week 12, the percent change in LDL-C from baseline to week 12 in patients treated with ETC-1002 plus EZE versus those treated with EZE alone, and the percent change from baseline to week 12 for all treatment groups in LDL particle number, apolipoprotein B, total cholesterol, non-high-density lipoprotein cholesterol (non-HDL-C), HDL-C, HDL particle number, apolipoprotein A-I, triglycerides, very-low-density lipoprotein (VLDL) particle number, and high-sensitivity C-reactive protein (CRP). Lipoprotein particle number was measured using nuclear magnetic resonance […].
# Statistical Plan and Analyses. The study was designed to include 322 patients: 92 patients in each monotherapy group and 23 patients in each combination therapy group. Sample size calculations were performed using nQuery Advisor® version 7.0 (Statistical Solutions, Cork, Ireland). The sample size of 92 patients per monotherapy group was expected to provide 90% power to detect a difference of 10% in the absolute percent change from baseline to week 12 in LDL-C between either ETC-1002 treatment group and the EZE monotherapy group. This calculation was based on a 2-sided t test at the 5% level of significance and assumed a common standard deviation of 15% in the statin-tolerant patients and 22% in the statin-intolerant patients with a dropout rate of 15%.
# An analysis of covariance was used to compare each ETC-1002 treatment group with EZE monotherapy for each of the efficacy endpoints. The primary model included the effects of treatment and statin intolerance and the baseline value as a covariate. Baseline was defined as the mean of values from weeks −1 and 0 for LDL-C, non-HDL-C, total cholesterol, HDL-C, and triglycerides. For all other lipid and biomarker measures, baseline was defined as the last value before the first dose of study drug. Missing values at week 12 were imputed using the last-observation-carried-forward procedure. When LDL-C could not be calculated (i.e., triglycerides >400 mg/dL), beta-quantification measurements were used to determine LDL-C values. Least-squares (LS) means and standard errors were obtained for each treatment group; differences in LS means and p-values were obtained for the treatment comparisons. Graphical methods (e.g., normal probability plot and histogram of residuals, plot of residuals vs. predicted values) or analytical methods (e.g., Shapiro-Wilk test), or both, were used to assess the model assumptions. Because of departures from normality observed in the parameters of triglycerides, CRP, and VLDL particle number, nonparametric analyses were performed for these measures, with p-values obtained from the Wilcoxon rank-sum test and median values presented.
# Percent changes from baseline in LDL-C also were summarized by statin-tolerance subgroup. […]
# [2] = system: high cardiovascular risk patients; assay: Phase 3 clinical trial study: LDL-C and hsCRP lowering; type: in vivo, human; settings: ETC-1002 monotherapy
# [3] = system: high cardiovascular risk patients; assay: Phase 3 clinical trial study: safety and tolerability; settings: human, in vivo
# Text: In a phase 3 clinical trial study consisting of 382 high cardiovascular risk patients who are receiving maximally tolerated statin therapy, treatment of ETC-1002 in combination with Ezetimibe provided clinically and statistically significant lowering of both LDL-C and hsCRP levels by about 35% and about 34% respectively. For patients who are on maximally tolerated statins and received the combination therapy of ETC-1002 and Ezetimibe, no increases in muscle-related adverse effects and no elevations in liver function tests were observed as compared to patients receiving the placebo treatment.
# [4] = system: hypercholesterolemic patients; assay: Phase 2b trial: treatment-emergent adverse events and laboratory safety
# Text: Study Population. Medically stable, hypercholesterolemic men and women aged 18 through 80 years with a body mass index between 18 to 45 kg/m^2 were included in the study. […] The study population included both statin-tolerant and statin-intolerant participants. Statin intolerance was defined as the inability to tolerate ≥2 statins because of muscle-related symptoms such as pain, weakness, or cramping that began or increased during statin therapy and resolved on statin discontinuation. At least 1 statin must have been administered at the lowest approved daily dose, defined as rosuvastatin 5 mg, atorvastatin 10 mg, simvastatin 10 mg, lovastatin 20 mg, pravastatin 40 mg, fluvastatin 40 mg, or pitavastatin 2 mg. Treatment with less than the lowest approved daily dose of a statin (i.e., skipping days) was considered equivalent to not tolerating 1 statin at the lowest approved daily dose.
# Overall Study Design and Plan. […] Patients underwent a 5-week washout of all lipid-regulating drugs and dietary supplements and abstained from these drugs and supplements throughout the study. Patients also underwent a 5-week patient-only-blinded placebo run-in during the screening period (week −5 to week 0). This single-blind placebo run-in period was used to eliminate patients with muscle-related AEs during placebo treatment. Patients reporting new or worsening, unexplained muscle-related AEs during this run-in period were excluded from the study.
# Patients were stratified (1:1) by history of statin intolerance and randomized at week 0 in a 4:4:4:1:1 ratio to once-daily treatment with capsules containing ETC-1002 120 mg, ETC-1002 180 mg, EZE, ETC-1002 120 mg plus EZE, or ETC-1002 180 mg plus EZE. […] A contract laboratory (Medpace Inc., Cincinnati, Ohio), performed all clinical laboratory tests. LDL-C was calculated using the Friedewald equation. Phlebotomy was performed after a minimum 12-hour fast (water was allowed) and only if the patient took their dose of study drug the previous day.
# Safety Endpoints. The safety of ETC-1002 was assessed using treatment-emergent AEs; hematology, serum chemistry, and urinalysis laboratory values; physical examination findings; vital sign measurements; electrocardiogram (ECG) readings; weight; and ankle and waist circumference measurements. AEs were coded using the Medical Dictionary for Regulatory Activities version 16.0 and evaluated by the investigator for severity and relation to study drug. Muscle-related AEs were defined as those from the system organ class of musculoskeletal and connective tissue disorders, except for those that were not obviously muscle related. Terms included in the muscle-related AE analysis were selected from this system organ class after database lock and before unblinding.
# Safety analyses were performed on the safety population, which included randomized patients who received at least 1 dose of study drug. Baseline patient characteristics were summarized for the safety population by treatment group and statin-tolerance subgroup.
# Muscle-related AEs also were summarized by statin-tolerance subgroup.
# [5] = ETC-1002 120 mg daily, mITT n = 97
# [6] = ETC-1002 180 mg daily, mITT n = 99
# [7] = ETC-1002 120 mg daily, safety population n = 99
# [8] = ETC-1002 180 mg daily, safety population n = 100
# [9] = statin-intolerant patients, ETC-1002 120 mg, n = 51
# [10] = statin-intolerant patients, ETC-1002 180 mg, n = 51
# [11] = statin-tolerant patients, ETC-1002 120 mg, n = 48
# [12] = statin-tolerant patients, ETC-1002 180 mg, n = 49
smiles,measurement,setting,value
"CC(C)(CCCCCC(O)CCCCCC(C)(C)C(=O)O)C(=O)O [ETC-1002, 8-hydroxy-2,2,14,14 tetramethylpentadecanedioic acid]","CRP decrease from baseline to week 12 endpoint, median",[1]; ETC-1002 120 mg,30%
same,LDL-C reduction,[1]; ETC-1002 120 mg alone,27%
same,"Apolipoprotein A-I, percent change from baseline to week 12",[1]; [5],−0.2 ± 1.1%
same,"Apolipoprotein B, percent change from baseline to week 12",[1]; [5],−19.3 ± 1.3 %
same,"HDL particle number, percent change from baseline to week 12",[1]; [5],5.0 ± 1.3%
same,"HDL-C, percent change from baseline to week 12",[1]; [5],−5.8 ± 1.4 %
same,"LDL particle number, percent change from baseline to week 12",[1]; [5],−21.8 ± 1.7 %
same,"LDL-C, percent change from baseline to week 12",[1]; [5],−27.5 ± 1.3 %
same,"Non-HDL-C, percent change from baseline to week 12",[1]; [5],−23.2 ± 1.2 %
same,"Total cholesterol, percent change from baseline to week 12",[1]; [5],−19.3 ± 0.9 %
same,"CRP, percent change from baseline to week 12",[1]; [5],−30.1 (55.4)† %
same,"Triglycerides, percent change from baseline to week 12",[1]; [5],0.0 (41.6) %
same,"VLDL particle number, percent change from baseline to week 12",[1]; [5],−2.7 (68.5) %
same,"CRP decrease from baseline to week 12 endpoint, median",[1]; ETC-1002 180 mg,40%
same,LDL-C reduction,[1]; ETC-1002 180 mg alone,30%
same,"Apolipoprotein A-I, percent change from baseline to week 12",[1]; [6],0.1 ± 1.2%
same,"Apolipoprotein B, percent change from baseline to week 12",[1]; [6],−21.3 ± 1.3 %
same,"HDL particle number, percent change from baseline to week 12",[1]; [6],6.2 ± 1.4%
same,"HDL-C, percent change from baseline to week 12",[1]; [6],−4.8 ± 1.4 %
same,"LDL particle number, percent change from baseline to week 12",[1]; [6],−24.6 ± 1.8 %
same,"LDL-C, percent change from baseline to week 12",[1]; [6],−30.1 ± 1.3 %
same,"Non-HDL-C, percent change from baseline to week 12",[1]; [6],−25.3 ± 1.1 %
same,"Total cholesterol, percent change from baseline to week 12",[1]; [6],−20.7 ± 0.9 %
same,"CRP, percent change from baseline to week 12",[1]; [6],−40.2 (53.3)† %
same,"Triglycerides, percent change from baseline to week 12",[1]; [6],−2.7 (46.2) %
same,"VLDL particle number, percent change from baseline to week 12",[1]; [6],15.3 (80.5) %
same,"LDL-C reduction, ETC-1002 alone (maximum)",[1]; ETC-1002 monotherapy 120 mg or 180 mg,up to 30%
same,LDL-C lowering,[2]; patients not receiving background statin therapy,≥ 30%
same,LDL-C lowering,[2]; patients receiving background statin therapy,≥ 20%
same,hsCRP lowering,[2]; patients receiving maximally tolerated statin therapy,22-40%
same,Increases in muscle-related adverse effects or serious adverse effects,[3],without any increases
same,Tolerability,[3],well tolerated and safe
same,"ALT or AST, or both, increased >3 times the upper limit of normal at any measurement",[4]; ETC-1002 120 mg,1 patient
same,"Myalgia, patients, entire study population",[4]; ETC-1002 120 mg,3%
same,Serious AE reported (event),[4]; ETC-1002 120 mg,hemothorax; also recorded: sudden death
same,"ALT increased, patients",[4]; [7],0 n (%)
same,"AST increased, patients",[4]; [7],0 n (%)
same,"Any AE(s), patients",[4]; [7],50 (51%) n (%)
same,"Arthralgia, patients",[4]; [7],4 (4%) n (%)
same,"Back pain, patients",[4]; [7],1 (1%) n (%)
same,"Blood CK increased, patients",[4]; [7],1 (1%) n (%)
same,"Constipation, patients",[4]; [7],3 (3%) n (%)
same,"Discontinuation due to AE(s), patients",[4]; [7],3 (3%) n (%)
same,"Headache, patients",[4]; [7],3 (3%) n (%)
same,"Myalgia, patients",[4]; [7],3 (3%) n (%)
same,"Nasopharyngitis, patients",[4]; [7],3 (3%) n (%)
same,"Serious AE(s), patients",[4]; [7],2 (2%) n (%)
same,"Study drug-related AE(s), patients",[4]; [7],13(13%) n (%)
same,"Upper respiratory tract infection, patients",[4]; [7],6 (6%) n (%)
same,"Urinary tract infection, patients",[4]; [7],0 n (%)
same,"ALT or AST, or both, increased >3 times the upper limit of normal at any measurement",[4]; ETC-1002 180 mg,2 patients
same,"Myalgia, patients, entire study population",[4]; ETC-1002 180 mg,1%
same,Serious AE reported (event),[4]; ETC-1002 180 mg,pancreatitis relapse
same,"ALT increased, patients",[4]; [8],0 n (%)
same,"AST increased, patients",[4]; [8],0 n (%)
same,"Any AE(s), patients",[4]; [8],55 (55%) n (%)
same,"Arthralgia, patients",[4]; [8],1 (1%) n (%)
same,"Back pain, patients",[4]; [8],1 (1%) n (%)
same,"Blood CK increased, patients",[4]; [8],4 (4%) n (%)
same,"Constipation, patients",[4]; [8],1 (1%) n (%)
same,"Discontinuation due to AE(s), patients",[4]; [8],6 (6%) n (%)
same,"Headache, patients",[4]; [8],2 (2%) n (%)
same,"Myalgia, patients",[4]; [8],1 (1%) n (%)
same,"Nasopharyngitis, patients",[4]; [8],5 (5%) n (%)
same,"Serious AE(s), patients",[4]; [8],1 (1%) n (%)
same,"Study drug-related AE(s), patients",[4]; [8],18 (18%) n (%)
same,"Upper respiratory tract infection, patients",[4]; [8],6 (6%) n (%)
same,"Urinary tract infection, patients",[4]; [8],4 (4%) n (%)
same,"Any muscle-related AE, patients",[4]; [9],7 (14%) n (%)
same,"Muscle spasms, patients",[4]; [9],3 (6%) n (%)
same,"Muscle-related AE leading to discontinuation, patients",[4]; [9],1 (2%) n (%)
same,"Muscular weakness, patients",[4]; [9],2 (4%) n (%)
same,"Musculoskeletal chest pain, patients",[4]; [9],0 n (%)
same,"Musculoskeletal stiffness, patients",[4]; [9],0 n (%)
same,"Myalgia, patients",[4]; [9],2 (4%) n (%)
same,"Pain in extremity, patients",[4]; [9],1 (2%) n (%)
same,"Sensation of heaviness, patients",[4]; [9],0 n (%)
same,"Any muscle-related AE, patients",[4]; [10],6 (12%) n (%)
same,"Muscle spasms, patients",[4]; [10],2 (4%) n (%)
same,"Muscle-related AE leading to discontinuation, patients",[4]; [10],2 (4%) n (%)
same,"Muscular weakness, patients",[4]; [10],1 (2%) n (%)
same,"Musculoskeletal chest pain, patients",[4]; [10],1 (2%) n (%)
same,"Musculoskeletal stiffness, patients",[4]; [10],0 n (%)
same,"Myalgia, patients",[4]; [10],1 (2%) n (%)
same,"Pain in extremity, patients",[4]; [10],1 (2%) n (%)
same,"Sensation of heaviness, patients",[4]; [10],0 n (%)
same,"Any muscle-related AE, patients",[4]; [11],1 (2%) n (%)
same,"Muscle spasms, patients",[4]; [11],0 n (%)
same,"Muscle-related AE leading to discontinuation, patients",[4]; [11],0 n (%)
same,"Musculoskeletal pain, patients",[4]; [11],0 n (%)
same,"Myalgia, patients",[4]; [11],1 (2%) n (%)
same,"Any muscle-related AE, patients",[4]; [12],0 n (%)
same,"Muscle spasms, patients",[4]; [12],0 n (%)
same,"Muscle-related AE leading to discontinuation, patients",[4]; [12],0 n (%)
same,"Musculoskeletal pain, patients",[4]; [12],0 n (%)
same,"Myalgia, patients",[4]; [12],0 n (%)
